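1) Cells in 96-well plates. 2) Compound, 48 h, 5 concentrations. 3) Linear interpolation between surrounding doses. 4) Unreached endpoint = highest concentration. GI50 = concentration required for 50% inhibition of growth. TGI denotes the concentration required for complete inhibition of growth.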
Legend:
Assay in all cases: DTP human tumour cell line panel, 48 h
[1] = tested on: OVCAR-3 ovarian
[2] = tested on: UACC-257 melanoma
[3] = tested on: SK-MEL-2 melanoma
[4] = tested on: DU-145 prostate
[5] = tested on: HCC-2998 colon
[6] = tested on: MDA-MB-231 breast
[7] = tested on: A549 NSCLC
[8] = tested on: MDA-MB-468 breast
[9] = tested on: A498 renal
[10] = tested on: HT29 colon
[11] = tested on: PC-3 prostate
[12] = tested on: K-562 leukemia
[13] = tested on: HOP-62 NSCLC
[14] = tested on: COLO 205 colon
[15] = tested on: RXF 393 renal
[16] = tested on: OVCAR-5 ovarian
[17] = tested on: CCRF-CEM leukemia
[18] = tested on: SK-MEL-5 melanoma
[19] = tested on: MDA-MB-435
[20] = tested on: RPMI-8226 leukemia
[21] = tested on: LOX IMVI melanoma
[22] = tested on: SNB-19 CNS
[23] = tested on: UACC-62 melanoma
[24] = tested on: NCI-H23 lung
[25] = tested on: HL-60(TB) leukemia
[26] = tested on: OVCAR-4 ovarian
[27] = tested on: SF-539 CNS
[28] = tested on: HCT-15 colon
[29] = tested on: SK-OV-3 ovarian
[30] = tested on: HOP-92 NSCLC
[31] = tested on: SNB-75 CNS
[32] = tested on: SR leukemia
[33] = tested on: TK-10 renal
[34] = tested on: MOLT-4 leukemia
[35] = tested on: U251 CNS
[36] = tested on: SK-MEL-28 melanoma
[37] = tested on: HCT-116 colon
[38] = tested on: ACHN renal
[39] = tested on: M14 melanoma
[40] = tested on: EKVX NSCLC
[41] = tested on: 786-0 renal
[42] = tested on: SN12C renal
[43] = tested on: HS 578T breast
[44] = tested on: NCI-H226 lung
[45] = tested on: UO-31 renal
[46] = tested on: NCI-H460 lung
[47] = tested on: KM12 colon
[48] = tested on: NCI/ADR-RES ovarian
[49] = tested on: MCF7 breast
[50] = tested on: OVCAR-8 ovarian
[51] = tested on: T-47D breast
[52] = tested on: IGROV1 ovarian
[53] = tested on: NCI-H522 lung
[54] = tested on: CAKI-1 renal
[55] = tested on: MALME-3M melanoma
[56] = tested on: SF-268 CNS
[57] = tested on: SF-295 CNS
[58] = tested on: BT-549 breast
[59] = tested on: SW-620 colon

SMILES: O=C(Nc1cccc(C(F)(F)F)c1)c1cncc(C#Cc2cnc3ccc(N4CCOCC4)nn23)c1
- GI50 [1]: 8.91 µM
- TGI [1]: 52.6 µM
- GI50 [2]: 10.1 µM
- TGI [2]: 56.6 µM
- GI50 [3]: 3.87 µM
- TGI [3]: 13.6 µM
- GI50 [4]: 4.3 µM
- TGI [4]: 80 µM
- GI50 [5]: 5.97 µM
- TGI [5]: 35.6 µM
- GI50 [6]: 1.13 µM
- TGI [6]: 9.33 µM
- GI50 [7]: 8.38 µM
- TGI [7]: > 86.8 µM
- GI50 [8]: 12.8 µM
- TGI [8]: 27 µM
- GI50 [9]: 5.53 µM
- TGI [9]: 16.6 µM
- GI50 [10]: 3.12 µM
- TGI [10]: 20.8 µM
- GI50 [11]: 10.8 µM
- TGI [11]: 72.6 µM
- GI50 [12]: 1.89 µM
- TGI [12]: > 86.8 µM
- GI50 [13]: 2.39 µM
- TGI [13]: 35.4 µM
- GI50 [14]: 3.2 µM
- TGI [14]: 11.4 µM
- GI50 [15]: 2.36 µM
- TGI [15]: 6.36 µM
- GI50 [16]: 2.74 µM
- TGI [16]: 38.6 µM
- GI50 [17]: 5.21 µM
- TGI [17]: 48.8 µM
- GI50 [18]: 11.2 µM
- TGI [18]: 22.8 µM
- GI50 [19]: 4.33 µM
- TGI [19]: 18.2 µM
- GI50 [20]: 12.5 µM
- TGI [20]: 44.9 µM
- GI50 [21]: 2.55 µM
- TGI [21]: 11.6 µM
- GI50 [22]: 17.1 µM
- TGI [22]: 49.8 µM
- GI50 [23]: 2.74 µM
- TGI [23]: 13.4 µM
- GI50 [24]: 2.38 µM
- TGI [24]: 11.7 µM
- GI50 [25]: 0.834 µM
- TGI [25]: 42.3 µM
- GI50 [26]: 15 µM
- TGI [26]: > 86.8 µM
- GI50 [27]: 1.11 µM
- TGI [27]: 3.01 µM
- GI50 [28]: 6.58 µM
- TGI [28]: 51.2 µM
- GI50 [29]: 7.01 µM
- TGI [29]: 48.8 µM
- GI50 [30]: 1.24 µM
- TGI [30]: 3.47 µM
- GI50 [31]: 1.76 µM
- TGI [31]: 7.71 µM
- GI50 [32]: 2.94 µM
- TGI [32]: > 86.8 µM
- GI50 [33]: 6.98 µM
- TGI [33]: 51.9 µM
- GI50 [34]: 14.6 µM
- TGI [34]: > 86.8 µM
- GI50 [35]: 15.4 µM
- TGI [35]: 67.2 µM
- GI50 [36]: 4.85 µM
- TGI [36]: 23 µM
- GI50 [37]: 1.92 µM
- TGI [37]: 13.4 µM
- GI50 [38]: 3.67 µM
- TGI [38]: 42.3 µM
- GI50 [39]: 3.47 µM
- TGI [39]: 14.8 µM
- GI50 [40]: 4.49 µM
- TGI [40]: 21 µM
- GI50 [41]: 8.11 µM
- TGI [41]: 42.9 µM
- GI50 [42]: 2.49 µM
- TGI [42]: 25.3 µM
- GI50 [43]: 1.62 µM
- TGI [43]: 5.45 µM
- GI50 [44]: 1.7 µM
- TGI [44]: > 86.8 µM
- GI50 [45]: 3.31 µM
- TGI [45]: 19.2 µM
- GI50 [46]: 11 µM
- TGI [46]: 27.4 µM
- GI50 [47]: 0.00868 µM
- TGI [47]: 14.1 µM
- GI50 [48]: 9.21 µM
- TGI [48]: 44.6 µM
- GI50 [49]: 2.76 µM
- TGI [49]: 26.4 µM
- GI50 [50]: 5.9 µM
- TGI [50]: 82.2 µM
- GI50 [51]: 9.23 µM
- TGI [51]: 62.1 µM
- GI50 [52]: 2.08 µM
- TGI [52]: 12.4 µM
- GI50 [53]: 9.08 µM
- TGI [53]: 24.5 µM
- GI50 [54]: 4.23 µM
- TGI [54]: 47.4 µM
- GI50 [55]: 4.24 µM
- TGI [55]: 18.7 µM
- GI50 [56]: 4.58 µM
- TGI [56]: 34.8 µM
- GI50 [57]: 11 µM
- TGI [57]: 29.8 µM
- GI50 [58]: 5.13 µM
- TGI [58]: 26.3 µM
- GI50 [59]: 3.03 µM
- TGI [59]: > 86.8 µM

Reference: PubChem BioAssay (NCI)
